Data reported in publication PMC4628094, “In Vitro Assessment of Uptake and Lysosomal Sequestration of Respiratory Drugs in Alveolar Macrophage Cell Line NR8383” (Pharmaceutical Research, 2015).
Like-named read-outs stand apart in the source and are kept apart here.

Tests used:
[1] = tested on: Liver tissue slices from male Sprague-Dawley rats; design: method as in ref (3) (a number printed in a supplementary file, which may have a reference list of its own: not looked up in the article's list); settings: desipramine 5 µM, chloroquine 10 µM, 60 min, ref (3), cited from earlier work; for Reduction in total uptake (%): NH4Cl 20 mM
[2] = tested on: Lung granule fraction containing lysosomes from male Wistar rats; design: method as in ref (6) (a number printed in a supplementary file, which may have a reference list of its own: not looked up in the article's list); settings: NH4Cl 10 mM, drug 1 µM, 10 min; ref (6); cited from earlier work
[3] = tested on: Hepatocytes isolated from male Wistar rats; settings: NH4Cl 10 mM, 15 min, ref (2), cited from earlier work
[4] = tested on: Lung tissue slices from male Sprague-Dawley rats; settings: desipramine, diazepam 5 µM, chloroquine, thiopental 10 µM, 60 min, ref (3), cited from earlier work; for Reduction in total uptake (%): NH4Cl 20 mM; for Reduction of total uptake (%): monensin 10 µM
[5] = tested on: Lung tissue slices from male Wistar rats; design: method as in ref (7) (a number printed in a supplementary file, which may have a reference list of its own: not looked up in the article's list); settings: NH4Cl 3 mg/min/kg (i.v. infusion), drug 3.2 mg/kg (i.v. injection), 360 min, ref (7); cited from earlier work
[6] = tested on: Liver tissue slices from male Wistar rats; design: method as in ref (7) (a number printed in a supplementary file, which may have a reference list of its own: not looked up in the article's list); settings: NH4Cl 3 mg/min/kg (i.v. infusion), drug 3.2 mg/kg (i.v. injection), 360 min, ref (7); cited from earlier work
[7] = Uptake kinetics of clarithromycin in NR8383, two-step method; assay type: in vitro ADME, rat; settings: rat, incubation media of NR8383 cells; NR8383 incubation media; read-out: fraction unbound in the media (fumed)
NR8383 cells [8] = assay: as above; assay type: in vitro ADME, rat; settings: in the presence of NH4Cl
NR8383 cells [9] = assay: LysoTracker Red (LTR) confocal assessment of lysosomal sequestration in NR8383; assay type: cell-based, rat; settings: drug 5 μM co-incubated with 200 nM LTR, 1 h
[10] = Physicochemical properties, experimental literature values (Table I); settings: classification in Table I
NR8383 cells [11] = settings: NR8383, 5 μM drug, 5 min
NR8383 cells [12] = tested on: NR8383 cells
[13] = tested on: NR8383 cell line and granule fraction (containing lysosomes); settings: ref ([12]), cited from earlier work
[14] = experimental value; ref ([21])-([30]) per drug, Table I; cited from earlier work
NR8383 cells [15] = assay: Drug uptake in NR8383 at 37 and 4°C (CLuptake, CLdiff, Kp); settings: for Contribution of passive (%): NR8383, 5 μM, CLdiff relative to CLuptake
NR8383 cells [16] = assay: Lysosomal sequestration studies in NR8383 with NH4Cl, monensin and nigericin; settings: for Reduction in uptake clearance (%): preliminary optimisation; for % Reduction in Kp by NH4Cl: NH4Cl 20 mM; for % Reduction in Kp by Monensin: monensin 5 μM; for % Reduction in Kp by Monensin / % Reduction in Kp by Nigericin: 5 min; for % Reduction in Kp by Nigericin: nigericin 10 μM; for reduction in Kp in the presence of chemical agents (summary in Discussion): NR8383, NH4Cl, monensin, nigericin
NR8383 cells [17] = assay: Accumulation (Kp) in NR8383 over a concentration range, two-site binding model; settings: apparent saturable uptake equilibrium constant, two-site binding model, control
[18] = Drug uptake in NR8383 at 37 and 4°C (CLuptake, CLdiff, Kp); settings: rat
[19] = Lysosomal sequestration studies in NR8383 with NH4Cl, monensin and nigericin; settings: rat; for Kp at 10 min, 5 μM: NR8383, 5 μM drug; for Kp at 10 min, 20 µM: NR8383, 20 µM drug
[20] = Accumulation (Kp) in NR8383 over a concentration range, two-site binding model; settings: rat, control

Compound: CCN(CC)CCCC(C)Nc1ccnc2cc(Cl)ccc12 (centres unmarked) [Chloroquine]
- Reduction in total uptake (%) [1]: 53%
- Reduction of total uptake (%) ([1]; monensin 10 µM): 44%
- Reduction in total uptake (%) [2]: 87%
- Reduction in total uptake (%) ([3]; drug 10 µM): 93%
- Reduction in total uptake (%) ([3]; drug 100 µM): 77%
- Reduction in total uptake (%) [4]: 66%
- Reduction of total uptake (%) [4]: 73%

Compound: CNCCCN1c2ccccc2CCc2ccccc21 [Desipramine]
- Reduction in total uptake (%) [1]: 15%
- Reduction in total uptake (%) [4]: 23%
- Reduction of total uptake (%) [4]: 12%

Compound: OC(CCN1CCCCC1)(c1ccccc1)C1CCCCC1 (centres unmarked) [Trihexyphenidyl]
- Reduction in total uptake (%) [2]: 54%
- Reduction in total uptake (%) [5]: 68%
- Reduction in total uptake (%) [6]: 11%

Compound: CC[C@H]1OC(=O)[C@H](C)[C@@H](O[C@H]2C[C@@](C)(OC)[C@@H](O)[C@H](C)O2)[C@H](C)[C@@H](O[C@@H]2O[C@H](C)C[C@H](N(C)C)[C@H]2O)[C@](C)(OC)C[C@@H](C)C(=O)[C@H](C)[C@@H](O)[C@]1(C)O [Clarithromycin]
- fraction unbound [7]: 0.93 ± 0.03
- Km (NR8383 cells [8]; active uptake): 28.5 µM
- Vmax (NR8383 cells [8]; active uptake): 12.4 pmol/min/10^6 cells
- total CLuptake from kinetic parameters (NR8383 cells [8]): 0.46 μL/min/10^6 cells
- reduction in LTR accumulation (NR8383 cells [9]): 86%
- Acid–base Property [10]: Base
- % Reduction in Kp by Monensin (NR8383 cells [11]; monensin 5 μM): 77%
- % Reduction in Kp by Nigericin (NR8383 cells [11]; nigericin 10 μM): 82%
- cytotoxicity (LDH) compared to positive control (NR8383 cells [12]; drug 50 μM): < 3%
- cytotoxicity (LDH) compared to positive control (NR8383 cells [12]; drug 100 μM): 10%
- Kp ([13]; NR8383, 10 min, 37°C, initial concentration 50 μM): ~ 16
- reduction in Kp at 4°C compared to 37°C ([13]; NR8383): 90%
- reduction of amount of drug in the cells by NH4Cl ([13]; NR8383): approximately half
- reduction of fraction of drug in the granules compartment (containing the lysosomes) by NH4Cl ([13]; NR8383): 75%
- LogD7.4 [14]: 1.57
- Contribution of passive (%) (NR8383 cells [15]): 0.53%
- mean uptake of 5 μM clarithromycin across experiments (NR8383 cells [15]; control of individual experiments, n = 59): 5.50 ± 2.96 μl/min/10^6 cells
- Reduction in uptake clearance (%) (NR8383 cells [16]; 5 µM drug, + 10 mM NH4Cl): 85%
- Reduction in uptake clearance (%) (NR8383 cells [16]; 5 µM drug, + 20 mM NH4Cl): 93%
- Reduction in uptake clearance (%) (NR8383 cells [16]; 5 µM drug, + 50 mM NH4Cl): 94%
- Reduction in uptake clearance (%) (NR8383 cells [16]; 20 µM drug, + 10 mM NH4Cl): 85%
- Reduction in uptake clearance (%) (NR8383 cells [16]; 20 µM drug, + 20 mM NH4Cl): 89%
- Reduction in uptake clearance (%) (NR8383 cells [16]; 20 µM drug, + 50 mM NH4Cl): 93%
- % Reduction in Kp by NH4Cl (NR8383 cells [16]; NR8383, 5 μM drug): 84 ± 6.6 %
- % Reduction in Kp by Monensin (NR8383 cells [16]; NR8383, 5 μM drug): 77 ± 8.5 %
- % Reduction in Kp by Nigericin (NR8383 cells [16]; NR8383, 5 μM drug): 82 ± 9.6 %
- % Reduction in Kp by NH4Cl (NR8383 cells [16]; NR8383, 20 µM drug): 75 ± 8.3 %
- % Reduction in CLuptake by Monensin (5 µM) (NR8383 cells [16]; NR8383, at 5 µM drug): 78 ± 8.0 %
- % Reduction in CLuptake by NH4Cl (20 mM) (NR8383 cells [16]; NR8383, at 5 µM drug): 85 ± 7.5 %
- % Reduction in CLuptake by Nigericin (10 µM) (NR8383 cells [16]; NR8383, at 5 µM drug): 84 ± 9.2 %
- % Reduction in CLuptake by NH4Cl (20 mM) (NR8383 cells [16]; NR8383, at 20 µM drug): 78 ± 9.0 %
- reduction of Kp and CLuptake in the presence of NH4Cl and monensin/nigericin (NR8383 cells [16]; NR8383, summary in Abstract): 59–85%
- reduction in Kp in the presence of chemical agents (summary in Discussion) (NR8383 cells [16]): ≥ 65%
- KU1 (NR8383 cells [17]): 1.18 ± 1.45 µM

Compound: COc1ccc(CC(C)NCC(O)c2ccc(O)c(NC=O)c2)cc1 (centres unmarked) [Formoterol]
- Acid–base Property [10]: Base
- cytotoxicity (LDH) compared to positive control (NR8383 cells [12]; high drug concentrations (50 and 100 μM per method), not stated at the place): less than 5%
- LogD7.4 [14]: 2.60
- Kp at 10 min, 5 μM [18]: 24.5 ± 8.71
- Contribution of passive (%) (NR8383 cells [15]): 3.71%
- Kp at 10 min, 5 μM ([19]; Kp + NH4Cl, 20 mM NH4Cl co-incubated, 10 min): 15.5 ± 1.16
- Kp at 10 min, 20 µM ([19]; Kp + NH4Cl, 20 mM NH4Cl): 19.2 ± 4.13
- Kp at 10 min, 5 μM ([19]; Kp Control, control): 20.8 ± 3.6
- Kp at 10 min, 20 µM ([19]; Kp Control, control): 26.5 ± 6.54
- % Reduction in Kp by NH4Cl (NR8383 cells [16]; NR8383, 5 μM drug): 24 ± 9.0%
- % Reduction in Kp by Monensin (NR8383 cells [16]; NR8383, 5 μM drug): 40 ± 7.5%
- % Reduction in Kp by Nigericin (NR8383 cells [16]; NR8383, 5 μM drug): 27 ± 5.1 %
- % Reduction in Kp by NH4Cl (NR8383 cells [16]; NR8383, 20 µM drug): 27 ± 8.1 %
- % Reduction in CLuptake by Monensin (5 µM) (NR8383 cells [16]; NR8383, at 5 µM drug): 41 ± 5.6%
- % Reduction in CLuptake by NH4Cl (20 mM) (NR8383 cells [16]; NR8383, at 5 µM drug): 25 ± 14%
- % Reduction in CLuptake by Nigericin (10 µM) (NR8383 cells [16]; NR8383, at 5 µM drug): 19 ± 12%
- % Reduction in CLuptake by NH4Cl (20 mM) (NR8383 cells [16]; NR8383, at 20 µM drug): 27 ± 13%
- reduction in Kp in the presence of chemical agents (summary in Discussion) (NR8383 cells [16]): 20–40%
- Kp at 10 min ([20]; Kp,max, sum of Kp,U1,max and Kp,min): 69
- Kp at 10 min ([20]; Kp,min, NR8383, 37°C, concentration range, two-site binding model): 10 ± 0.92
- KU1 (NR8383 cells [17]): 1.54 ± 0.49 µM
